# Laboratory results from paper PMC6934184, “Selective DNA-PKcs inhibition extends the therapeutic index of localized radiotherapy and chemotherapy” (The Journal of Clinical Investigation, 2019).
# Biological target: T1, EPHA8 (Homo sapiens, UniProt P29322)
# T1 construct: purchased Thermo Fisher Scientific (Life Technologies) SelectScreen
# Test: SelectScreen Z'LYTE
# Type: biochemical
# Outline: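 NU5455 was profiled across the SelectScreen Broad panel of kinase activity and binding assays. Z'LYTE reactions such as CSF1R ran at apparent Km ATP, while the Adapta CAMK1 assay used ATP listed as 10. Values are given as percent.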
# T1 sequence (P29322 28-1005): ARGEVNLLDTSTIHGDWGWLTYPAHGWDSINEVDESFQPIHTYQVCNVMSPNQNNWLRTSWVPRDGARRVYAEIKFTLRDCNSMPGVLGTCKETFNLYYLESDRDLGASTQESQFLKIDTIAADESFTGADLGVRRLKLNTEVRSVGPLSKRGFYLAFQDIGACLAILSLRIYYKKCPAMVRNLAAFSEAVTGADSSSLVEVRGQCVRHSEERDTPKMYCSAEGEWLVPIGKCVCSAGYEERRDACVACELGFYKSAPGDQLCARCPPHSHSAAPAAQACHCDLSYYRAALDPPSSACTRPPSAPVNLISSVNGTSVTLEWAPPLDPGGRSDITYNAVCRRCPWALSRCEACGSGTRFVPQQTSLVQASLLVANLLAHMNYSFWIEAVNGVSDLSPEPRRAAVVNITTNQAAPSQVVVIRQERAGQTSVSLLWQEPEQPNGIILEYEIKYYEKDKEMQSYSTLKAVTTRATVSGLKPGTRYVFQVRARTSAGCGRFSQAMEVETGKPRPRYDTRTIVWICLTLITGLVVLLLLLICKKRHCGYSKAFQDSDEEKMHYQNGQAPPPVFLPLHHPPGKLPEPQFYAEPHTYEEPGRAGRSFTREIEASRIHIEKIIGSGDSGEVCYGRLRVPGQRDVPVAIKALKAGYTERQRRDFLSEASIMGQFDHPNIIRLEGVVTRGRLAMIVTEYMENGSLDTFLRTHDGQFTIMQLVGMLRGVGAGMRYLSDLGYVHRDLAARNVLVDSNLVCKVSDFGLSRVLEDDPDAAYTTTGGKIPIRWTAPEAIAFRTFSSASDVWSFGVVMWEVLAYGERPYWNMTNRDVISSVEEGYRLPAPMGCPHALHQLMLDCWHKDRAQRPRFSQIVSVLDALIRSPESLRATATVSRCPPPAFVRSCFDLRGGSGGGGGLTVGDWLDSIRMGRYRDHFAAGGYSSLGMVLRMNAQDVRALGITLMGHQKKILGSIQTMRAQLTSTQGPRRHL
smiles,measurement,value
CN(C(=O)CN1CCOCC1)c1ccc2sc3c(-c4cccc5c(=O)cc(N6CC7CCC(C6)O7)oc45)cccc3c2c1 [NU5455],inhibition at 1 µM,-13.8%
